Series [1] deals with T1, TXNRD1 (thioredoxin reductase 1) (Rattus norvegicus, UniProt O89049).
T1 sequence (O89049 1-499): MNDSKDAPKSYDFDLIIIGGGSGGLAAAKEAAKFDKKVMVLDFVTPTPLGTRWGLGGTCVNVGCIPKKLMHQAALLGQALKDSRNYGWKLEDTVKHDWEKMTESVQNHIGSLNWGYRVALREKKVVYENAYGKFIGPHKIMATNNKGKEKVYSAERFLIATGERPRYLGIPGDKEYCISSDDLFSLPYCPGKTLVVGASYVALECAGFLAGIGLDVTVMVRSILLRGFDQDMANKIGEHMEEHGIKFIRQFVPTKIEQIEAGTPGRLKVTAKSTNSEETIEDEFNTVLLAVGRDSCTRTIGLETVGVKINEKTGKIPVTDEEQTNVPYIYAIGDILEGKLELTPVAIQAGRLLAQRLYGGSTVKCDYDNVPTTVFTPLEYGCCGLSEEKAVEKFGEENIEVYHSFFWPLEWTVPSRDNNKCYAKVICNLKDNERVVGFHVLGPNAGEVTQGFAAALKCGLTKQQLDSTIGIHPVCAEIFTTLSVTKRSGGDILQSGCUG
The experiment in a line: […] min incubation, residual activity by DTNB reduction assay. The class given is biochemical.

Series [2] addresses T1, TXNRD1 (thioredoxin reductase 1). The series is described as above. The class given is biochemical. Particulars: 0.25 h, read-out: % residual activity at 0.5 μM.

Regarding `[NH2][Pt]([NH2])([Cl])[Cl]` [cisplatin], the “60 min incubation, residual activity by DTNB reduction assay” value in series [1] was “the inhibition of auranofin and cisplatin on TXNRD1 is not significantly affected by guiding bar mutants”. With `COc1ccc([N+](=O)[O-])c(S(=O)(=O)c2ccc(Cl)cc2)n1` [TRi-1], in series [2], the remaining activity at 0.5 µM was ~30%.
